For one data set, the system named is s.c. BxPC3 tumors. The experiment in a line: Protocol 103: efficacy, biodistribution, tolerability of CEA-PRIT. Format: in vivo, SCID mice. As to the method: Step 1: Administration of a BsAb (i.v. or i.p.): The BsAb used in the studies binds Pb-DOTAM with high affinity and targets the tumor e.g. via CEA.
Step 2: Administration of CA (i.v. or i.p.): To allow efficient tumor accumulation of ^212Pb-DOTAM, circulating BsAb needs to be neutralized in the blood using a CA that blocks ^212Pb-DOTAM binding to unbound BsAb, without penetrating into the tumor and consequently blocking the pretargeted sites. The CA is administered once the BsAb has accumulated to a sufficient degree in the tumor, generally after 4-10 days. […]
The body weight (BW) of the study animals was measured at least 3 times per week, with additional measurements as needed depending on the health status. […]
Blood was collected at termination from the venous sinus using retro-orbital bleeding, followed by additional tissue harvest for radioactive measurements and/or histological analysis, as mandated by the protocols. […] Organs and tissues collected for biodistribution purposes were weighed and measured for radioactivity using a 2470 WIZARD^2 automatic gamma counter (PerkinElmer), and the percent injected dose per gram of tissue (% ID/g) subsequently calculated, including corrections for decay and background. […]
where d indicates treatment day and 0 the baseline value. […] Tumor regression (TR) was calculated according to: […]

For another data set, the system named is s.c. WSU-DLCL2 tumors. In words: Protocol 162: CD20-PRIT and 1-step RIT efficacy and biodistribution. Conditions: multiple injections of 20 μCi (PRIT). The format is in vivo, SCID mice. The method, then: The aim of this study was to show proof-of-concept of the treatment regimen developed for CEA-PRIT directed against an alternative target: cluster of differentiation 20 (CD20). The therapeutic efficacy was evaluated after 3 cycles of CD20-PRIT in mice bearing subcutaneous WSU-DLCL2 tumors. Comparisons were also made with: 1-step CD20-RIT, using BsAbs that were pre-incubated with ^212Pb-DOTAM before injection; with rituximab, a type I monoclonal antibody directed against CD20 and a reference in treatment of CD20+ diseases; and with GA101, a type II monoclonal antibody also directed against CD20.
Animals were treated according to the experimental schedule illustrated in FIG. 59. Solid WSU-DLCL2 xenografts were established in SCID mice aged 8 weeks on study day 0 by subcutaneous injection of 1.5×10^5 cells into the right flank. […]
Mice in groups H, I, and L were sacrificed and necropsied for biodistribution purposes 24 hours after their first and only injection of ^212Pb-DOTAM or ^212Pb-DOTAM-BsAb; groups J and K were sacrificed and necropsied 24 hours after their second and third ^212Pb-DOTAM injection, respectively. […] Collected samples were weighed and then measured for radioactivity using a 2470 WIZARD^2 automatic gamma counter (PerkinElmer), and the percent injected dose per gram of tissue (% ID/g) subsequently calculated, including corrections for decay and background. […]

`NC(=O)CN1CCN(CC(N)=O)CCN(CC(N)=O)CCN(CC(N)=O)CC1.[212Pb+2]` [^212Pb-DOTAM]: the BW loss entry with s.c. BxPC3 tumors (10 μCi, even at multiple injections) was “mild”. For the same compound, the radioactivity level tolerability result with s.c. BxPC3 tumors (30 μCi under the applied conditions) is listed as “approaching the maximum tolerated activity”. Also, the “tolerability (BW development)” value in the data set with s.c. WSU-DLCL2 tumors is listed as “well tolerated”.

(Values after patent US20220031871A1, “ANTIBODIES FOR CHELATED RADIONUCLIDES AND CLEARING AGENTS” (Hoffmann-La Roche Inc., priority 2018, published 2022).)
